Laboratory results reported in US20120129842A1, “BISTHIAZOLE INHIBITORS OF PRO-MATRIX METALLOPROTEINASE ACTIVATION” (priority 2010, published 2012).
Counter-ions that a name gives are not always drawn.

How the values were obtained:
[1] = target: T1, proMMP9(20-445;ΔFnII) (SEQ ID NO:6) (Homo sapiens, UniProt P14780, DEL216-390); assay: ThermoFluor binding assay with proMMP9(20-445;ΔFnII); settings: pH 7.0
T1 construct: start methionine (N); made in house; host or cells: E. coli BL21(DE3) RIL
T1 sequence (P14780 with tags, fused parts or gaps DEL216-390): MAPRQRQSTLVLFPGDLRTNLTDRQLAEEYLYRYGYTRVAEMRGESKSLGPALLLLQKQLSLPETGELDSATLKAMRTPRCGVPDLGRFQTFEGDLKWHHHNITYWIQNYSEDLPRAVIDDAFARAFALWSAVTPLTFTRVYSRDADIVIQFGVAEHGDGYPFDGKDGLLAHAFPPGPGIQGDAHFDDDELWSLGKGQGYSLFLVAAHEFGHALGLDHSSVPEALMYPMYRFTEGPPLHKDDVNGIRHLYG
Procedure, shortened: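 proMMP9(20-445;ΔFnII) at 2.8 μM with 50 μM 1,8-ANS in 50 mM HEPES pH 7.0, 100 mM NaCl, 0.001% Tween-20, 2.5 mM MgCl2, 300 μM CaCl2; compounds serially diluted in DMSO. Heated 40–90 °C at 1 °C/min, fluorescence read at 500±25 nm. Tm fit by standard equations; binding fit using DSC/TF-derived thermodynamic parameters.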

[2] = target: T2, full-length proMMP9(1-707) (SEQ ID NO:1) (Homo sapiens, UniProt P14780, R574P); assay: proMMP9/MMP3 P126 Activation Assay; format: biochemical; settings: 20 nM proMMP9, 20 nM MMP3, 80 min 37° C.
T2 construct: made in house; host or cells: HEK293 (proMMP9, secreted); E. coli (MMP3)
T2 sequence (P14780 20-707 R574P): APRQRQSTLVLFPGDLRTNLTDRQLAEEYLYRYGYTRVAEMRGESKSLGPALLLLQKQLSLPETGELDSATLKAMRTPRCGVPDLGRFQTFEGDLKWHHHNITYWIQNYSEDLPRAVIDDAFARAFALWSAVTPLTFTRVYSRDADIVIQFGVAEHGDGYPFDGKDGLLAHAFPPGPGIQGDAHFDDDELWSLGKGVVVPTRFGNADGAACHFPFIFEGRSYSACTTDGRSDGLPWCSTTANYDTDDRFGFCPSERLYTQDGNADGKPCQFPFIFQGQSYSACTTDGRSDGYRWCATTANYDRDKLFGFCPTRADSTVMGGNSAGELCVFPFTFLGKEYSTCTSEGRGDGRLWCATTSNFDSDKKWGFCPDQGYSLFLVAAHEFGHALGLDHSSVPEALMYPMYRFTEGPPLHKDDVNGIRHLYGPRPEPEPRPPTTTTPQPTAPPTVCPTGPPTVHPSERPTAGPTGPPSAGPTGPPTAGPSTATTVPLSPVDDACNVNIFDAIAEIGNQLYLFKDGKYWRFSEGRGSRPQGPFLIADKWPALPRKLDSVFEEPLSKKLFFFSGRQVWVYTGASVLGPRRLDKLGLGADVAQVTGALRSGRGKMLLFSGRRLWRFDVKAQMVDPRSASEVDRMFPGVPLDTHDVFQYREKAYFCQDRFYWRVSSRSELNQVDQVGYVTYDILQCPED
Protocol: The reaction volume was 50 μL. […] Reactivity of residual MMP3 towards P-126 substrate was minimal under these conditions.

[3] = target: proMMP13(1-268) (SEQ ID NO:7) (Homo sapiens, UniProt P45452); assay: ThermoFluor binding assay with proMMP13(1-268); design: 6xHis (C); made in house; settings: pH 7.0
Procedure, shortened: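 Thermal shift binding with 3.5 μM protein and 25 μM 1,8-ANS in 50 mM HEPES pH 7.0, 100 mM NaCl, 0.001% Tween-20, 2.5 mM MgCl2, 300 μM CaCl2. Samples were heated 40 to 90 °C at 1 °C/min, fluorescence read at 500 nm. Tm shifts across an 11-point DMSO dilution series were fitted with DSC-derived thermodynamic parameters.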

[4] = target: T3, proMMP9(67-444;ΔFnII) (SEQ ID NO:5) (Homo sapiens, UniProt P14780, DEL216-390); assay: ThermoFluor binding assay with proMMP9(67-444;ΔFnII); settings: pH 7.0
T3 construct: start methionine (N); made in house; host or cells: E. coli BL21(DE3) RIL
T3 sequence (P14780 with tags, fused parts or gaps DEL216-390): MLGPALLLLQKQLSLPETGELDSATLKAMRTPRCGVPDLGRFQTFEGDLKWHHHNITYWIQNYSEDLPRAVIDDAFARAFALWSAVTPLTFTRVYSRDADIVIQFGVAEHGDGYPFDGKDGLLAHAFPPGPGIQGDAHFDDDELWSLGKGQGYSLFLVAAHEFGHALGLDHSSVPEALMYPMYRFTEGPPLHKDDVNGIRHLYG
Procedure, shortened: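 Thermal shift binding with 3.5 μM proMMP9(67-444;ΔFnII) and 50 μM 1,8-ANS in 50 mM HEPES pH 7.0, 100 mM NaCl, 2.5 mM MgCl2, 300 μM CaCl2, 0.001% Tween-20, with serially diluted compound. Heated 40 to 90° C at 1° C/min; fluorescence-derived Tm fitted using DSC/ThermoFluor thermodynamic parameters.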

Compound	Kd [1] [nM]	IC50 [2] [nM]	Kd [3] [nM]	Kd [4] [nM]
CCOc1ccc(C(=O)O)cc1Nc1nc(-c2sc(N)nc2C)cs1 [Example 46, 3-(2′-Amino-4′-methyl-[4,5′]bithiazolyl-2-ylamino)-4-ethoxy-benzoic acid.HBr]	1400	1100	5500	1200
CCOc1ccc(C(=O)O)cc1Nc1nc(-c2sc(C)nc2C)cs1 [Example 47, 3-(2′,4′-Dimethyl-[4,5′]bithiazolyl-2-ylamino)-4-ethoxy-benzoic acid.HBr]	1800	310	2400	680
CCOc1ccc(C(=O)O)cc1Nc1nc(-c2sc(NC(C)=O)nc2C)cs1 [Example 48, 3-(2′-Acetylamino-4′-methyl-[4,5′]bithiazolyl-2-ylamino)-4-ethoxy-benzoic acid.HBr]	23000	1400	63000	3700
CCS(=O)(=O)c1ccc(OC)c(Nc2nc(-c3sc(NC(C)=O)nc3C)cs2)c1 [Example 49, N-[2-(5-Ethanesulfonyl-2-methoxy-phenylamino)-4′-methyl-[4,5]bithiazolyl-2′-yl]-acetamide.TFA]	4100	3000	6100	2500
CCS(=O)(=O)c1ccc(OC)c(Nc2nc(-c3sc(C)nc3C)cs2)c1 [Example 50, (2′,4′-Dimethyl-[4,5′]bithiazolyl-2-yl)-(5-ethanesulfonyl-2-methoxy-phenyl)-amine.TFA]	1300	4100	2600	2600
CCS(=O)(=O)c1ccc(OC)c(Nc2nc(-c3sc(N)nc3C)cs2)c1 [Example 51, N^2-(5-Ethanesulfonyl-2-methoxy-phenyl)-4′-methyl-[4,5′]bithiazolyl-2,2′-diamine.TFA]	1100	4100	1900	3000
COc1ccc(C(=O)O)cc1Nc1nc(-c2sc(N)nc2C)cs1 [Example 55, 3-(2′-Amino-4′-methyl-[4,5′]bithiazolyl-2-ylamino)-4-methoxy-benzoic acid.HBr]	2500	740	9800	1700
COc1ccc(C(=O)O)cc1Nc1nc(-c2sc(NC(C)=O)nc2C)cs1 [Example 57, 3-(2′-Acetylamino-4′-methyl-[4,5′]bithiazolyl-2-ylamino)-4-methoxy-benzoic acid.HBr]	11000	1900	> 95000	1700
COc1ccc(C(=O)NCc2ccccc2)cc1Nc1nc(-c2sc(NC(C)=O)nc2C)cs1 [Example 59, 3-(2′-Acetylamino-4′-methyl-[4,5′]bithiazolyl-2-ylamino)-N-benzyl-4-methoxy-benzamide.TFA]	2000	7500	20000	2700
CNC(=O)c1ccc(OC)c(Nc2nc(-c3sc(N)nc3C)cs2)c1 [Example 66, 3-(2′-Amino-4′-methyl-[4,5′]bithiazolyl-2-ylamino)-4-methoxy-N-methyl-benzamide.TFA]	2800	4900	2600	1800
COc1ccc(N)cc1Nc1nc(-c2sc(NC(C)=O)nc2C)cs1 [Example 69, N-[2-(5-Amino-2-methoxy-phenylamino)-4′-methyl-[4,5′]bithiazolyl-2′-yl]-acetamide]	4800	1400	25000	1100
COc1ccc(S(C)(=O)=O)cc1Nc1nc(-c2sc(NC(C)=O)nc2C)cs1 [Example 74, N-[2-(5-Methanesulfonyl-2-methoxy-phenylamino)-4′-methyl-[4,5]bithiazolyl-2′-yl]acetamide.HBr]	1800	2500	2400	500
COc1ccc(S(C)(=O)=O)cc1Nc1nc(-c2sc(N)nc2C)cs1 [Example 75, N^2-(5-Methanesulfonyl-2-methoxy-phenyl)-4′-methyl-[4,5′]bithiazolyl-2,2′-diamine.HBr]	1100	1600	1500	600

Compounds with a lower Kd [1], results first:

Kd [1] [nM]	IC50 [2] [nM]	Kd [3] [nM]	Kd [4] [nM]	Compound
240	830	200	980	Cc1nc(C)c(-c2csc(Nc3cc(S(C)(=O)=O)ccc3OC(C)C)n2)s1 [Example 45, (2′,4′-Dimethyl-[4,5′]bithiazolyl-2-yl)-(2-isopropoxy-5-methanesulfonyl-phenyl)-amine.TFA]
1000	3400	2000	1600	COc1ccc(S(N)(=O)=O)cc1Nc1nc(-c2sc(C)nc2C)cs1 [Example 54, 3-(2′,4′-Dimethyl-[4,5′]bithiazolyl-2-ylamino)-4-methoxy-benzenesulfonamide.TFA]
58	350	70	110	Cc1nc(N)sc1-c1csc(Nc2cc(S(N)(=O)=O)ccc2OC(C)C)n1 [Example 60, 3-(2′-Amino-4′-methyl-[4,5′]bithiazolyl-2-ylamino)-4-isopropoxy-benzenesulfonamide.TFA]
69	380	110	140	Cc1nc(N2CCN(C)CC2)sc1-c1csc(Nc2cc(S(N)(=O)=O)ccc2OC(C)C)n1 [Example 61, 4-Isopropoxy-3-[4′-methyl-2′-(4-methyl-piperazin-1-yl)-[4,5′]bithiazolyl-2-ylamino]-benzenesulfonamide.TFA]
300	1500	160	670	Cc1nc(C)c(-c2nc(Nc3cc(S(N)(=O)=O)ccc3OC(C)C)sc2F)s1 [Example 62, 3-(5-Fluoro-2′,4′-dimethyl-[4,5′]bithiazolyl-2-ylamino)-4-isopropoxy-benzenesulfonamide.TFA]
520	750	1300	790	CC(=O)Nc1nc(C)c(-c2csc(Nc3cc(S(N)(=O)=O)ccc3OC(C)C)n2)s1 [Example 63, N-[2-(2-Isopropoxy-5-sulfamoyl-phenylamino)-4′-methyl-[4,5′]bithiazolyl-2′-yl]-acetamide.TFA]
320	97	8400	550	COc1ccc([N+](=O)[O-])cc1Nc1nc(-c2sc(NC(C)=O)nc2C)cs1 [Example 68, N-[2-(2-Methoxy-5-nitro-phenylamino)-4′-methyl-[4,5′]bithiazolyl-2′-yl]-acetamide.TFA]
250	460	1100	410	CCOc1ccc(S(N)(=O)=O)cc1Nc1nc(-c2sc(C)nc2C)cs1 [Example 70, 3-(2′,4′-Dimethyl-[4,5′]bithiazolyl-2-ylamino)-4-ethoxy-benzenesulfonamide.HCl]
280	870	42	95	Cc1nc(N)sc1-c1csc(Nc2cc(C#N)ccc2OC(C)C)n1 [Example 71, 3-(2′-Amino-4′-methyl-[4,5′]bithiazolyl-2-ylamino)-4-isopropoxy-benzonitrile.HBr]
570	430	370	780	Cc1nc(C)c(-c2csc(Nc3cc(C(=O)O)ccc3OC(C)C)n2)s1 [Example 76, 3-(2′,4′-Dimethyl-[4,5′]bithiazolyl-2-ylamino)-4-isopropoxy-benzoic acid]
